Experimental data taken from ChEMBL document CHEMBL1201862, “PubChem BioAssay data set” (2004).
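Values below derive from 48-hour exposures of cells grown in 96-well plates, with endpoints linearly interpolated between the two concentrations bracketing the appropriate inhibition level. Abbreviation: GI50, concentration required for 50% inhibition of growth.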 The source made the active and inactive calls. Rule as the data show it: active = GI50 up to about 1.1 µM and inactive = higher.

Legend:
Experiment in all cases: growth of human tumour cells (NCI), 48 h
HOP-62 = tested on: HOP-62
KM12 = tested on: KM12
COLO 205 = tested on: COLO 205
SK-OV-3 = tested on: SK-OV-3
SF-268 = tested on: SF-268
RPMI-8226 = tested on: RPMI-8226
HCT-15 = tested on: HCT-15
EKVX = tested on: EKVX
RXF 393 = tested on: RXF 393
NCI-H23 = tested on: NCI-H23
SK-MEL-5 = tested on: SK-MEL-5
U-251 = tested on: U-251
DU-145 = tested on: DU-145
SR = tested on: SR
HCT-116 = tested on: HCT-116
SF-295 = tested on: SF-295
MOLT-4 = tested on: MOLT-4
SNB-19 = tested on: SNB-19
HCC 2998 = tested on: HCC 2998
NCI-H460 = tested on: NCI-H460

| SMILES | GI50 (HOP-62) | GI50 (KM12) | GI50 (COLO 205) | GI50 (SK-OV-3) | GI50 (SF-268) | GI50 (RPMI-8226) | GI50 (HCT-15) | GI50 (EKVX) | GI50 (RXF 393) | GI50 (NCI-H23) | GI50 (SK-MEL-5) | GI50 (U-251) | GI50 (DU-145) | GI50 (SR) | GI50 (HCT-116) | GI50 (SF-295) | GI50 (MOLT-4) | GI50 (SNB-19) | GI50 (HCC 2998) | GI50 (NCI-H460) |
| --- | --- | --- | --- | --- | --- | --- | --- | --- | --- | --- | --- | --- | --- | --- | --- | --- | --- | --- | --- | --- |
| CC(=O)c1ccc2c3c1[C@@H]1O[C@@H]1c1cccc(c1-3)[C@@H]1O[C@H]21 | 13.7 µM (inactive) | 7.52 µM (inactive) | 9.79 µM (inactive) | 28.6 µM (inactive) | 6.62 µM (inactive) | 5.05 µM (inactive) | 3.44 µM | 16.4 µM (inactive) | 11.5 µM (inactive) | 7 µM (inactive) | 11.7 µM (inactive) | 6.62 µM (inactive) | 8.39 µM (inactive) | > 100 µM (inactive) | 4.54 µM (inactive) | 15 µM (inactive) | 14.1 µM (inactive) | 20.3 µM (inactive) |  |  |
| S=c1sc2c(s1)SCCCCSCCCCSc1sc(=S)sc1SCCCCSCCCCS2 | > 100 µM (inactive) | > 100 µM (inactive) | > 100 µM (inactive) | > 100 µM (inactive) | 93.1 µM (inactive) | > 100 µM (inactive) | > 100 µM | > 100 µM (inactive) |  | > 100 µM (inactive) | > 100 µM (inactive) | > 100 µM (inactive) | > 100 µM (inactive) | > 100 µM (inactive) | > 100 µM (inactive) | > 100 µM (inactive) | > 100 µM (inactive) | > 100 µM (inactive) | > 100 µM (inactive) | > 100 µM (inactive) |
| C=CCN1C[C@H](C)N([C@H](c2ccc(C(=O)N(CC)CC)cc2)c2cccc(OC)c2)C[C@H]1C [SNC-80] | 74.1 µM (inactive) | 50.8 µM (inactive) | 16.8 µM (inactive) | 75.2 µM (inactive) | 86.5 µM (inactive) | 29.1 µM (inactive) | 70.3 µM | > 100 µM (inactive) |  | 32.7 µM (inactive) | 14 µM (inactive) | 44.9 µM (inactive) | > 100 µM (inactive) | 39.5 µM (inactive) | 42.7 µM (inactive) | 19.9 µM (inactive) | 27.9 µM (inactive) | > 100 µM (inactive) |  |  |
| COc1cc(C2(O)c3ccccc3C3=NCCN32)cc(OC)c1OC (stereo not given) | > 100 µM (inactive) | > 100 µM (inactive) | > 100 µM (inactive) | > 100 µM (inactive) | > 100 µM (inactive) | > 100 µM (inactive) | > 100 µM |  |  | > 100 µM (inactive) | > 100 µM (inactive) | > 100 µM (inactive) | > 100 µM (inactive) | 64.3 µM (inactive) | > 100 µM (inactive) | > 100 µM (inactive) | 30.3 µM (inactive) | 79.4 µM (inactive) | > 100 µM (inactive) | > 100 µM (inactive) |
| Cc1ccc2nc(CN3CCCCC3)cc(=O)n2c1 | > 100 µM (inactive) | > 100 µM (inactive) | > 100 µM (inactive) | > 100 µM (inactive) | > 100 µM (inactive) | > 100 µM (inactive) | > 100 µM | > 100 µM (inactive) |  | > 100 µM (inactive) |  | > 100 µM (inactive) | > 100 µM (inactive) | > 100 µM (inactive) | > 100 µM (inactive) | > 100 µM (inactive) | > 100 µM (inactive) | > 100 µM (inactive) | > 100 µM (inactive) | > 100 µM (inactive) |
| CC(C)N(Cc1ccccc1)S(=O)(=O)c1nc(C(C)(C)C)n[nH]1 | > 100 µM (inactive) | > 100 µM (inactive) | > 100 µM (inactive) | > 100 µM (inactive) | > 100 µM (inactive) | > 100 µM (inactive) | > 100 µM | > 100 µM (inactive) | > 100 µM (inactive) | > 100 µM (inactive) | > 100 µM (inactive) | > 100 µM (inactive) | > 100 µM (inactive) | > 100 µM (inactive) | > 100 µM (inactive) | > 100 µM (inactive) |  | > 100 µM (inactive) |  | > 100 µM (inactive) |
| Oc1ccc(/C=C/c2cccc(/C=C/c3ccc(O)c(O)c3)n2)cc1O | 22.2 µM (inactive) | 8.91 µM (inactive) | 14.2 µM (inactive) | 16.1 µM (inactive) | 10.7 µM (inactive) | 3.76 µM (inactive) | 22.7 µM | 11.7 µM (inactive) |  |  | 4.72 µM (inactive) | 3.85 µM (inactive) | 3.77 µM (inactive) | 3.49 µM (inactive) | 5.98 µM (inactive) | 18.6 µM (inactive) | 3.27 µM (inactive) | 6.04 µM (inactive) | 16.5 µM (inactive) | 5.57 µM (inactive) |
| Cc1c2ccccc2c(CSC(=N)N)c2ccccc12 | 0.241 µM (active) | 0.218 µM (active) | 0.14 µM (active) | 0.344 µM (active) | 0.0738 µM (active) | 0.0841 µM (active) | 0.269 µM | 0.304 µM (active) | 0.0715 µM (active) | 0.106 µM (active) | 0.162 µM (active) | 0.176 µM (active) | 0.084 µM (active) | 0.0194 µM (active) | 0.189 µM (active) | 0.271 µM (active) | 0.0284 µM (active) | 0.228 µM (active) |  | 0.074 µM (active) |
